Results taken from patent US7723329B2, “Substituted-3-sulfonylindazole derivatives as 5-hydroxytryptamine-6 ligands” (Wyeth LLC, priority 2005, dated 2010).

What was measured:
[1] = target: T1, human cloned 5-HT6 receptors (Homo sapiens, UniProt P50406); assay: 5-HT6 binding affinity, [3H]-LSD displacement; details: membranes of Hela cells expressing human cloned 5-HT6 receptors; [3H]-LSD 3.0 nM; 120 minutes at room temperature
T1 construct: expressed in transfected cells; host or cells: HeLa cells
T1 sequence (P50406 whole entry): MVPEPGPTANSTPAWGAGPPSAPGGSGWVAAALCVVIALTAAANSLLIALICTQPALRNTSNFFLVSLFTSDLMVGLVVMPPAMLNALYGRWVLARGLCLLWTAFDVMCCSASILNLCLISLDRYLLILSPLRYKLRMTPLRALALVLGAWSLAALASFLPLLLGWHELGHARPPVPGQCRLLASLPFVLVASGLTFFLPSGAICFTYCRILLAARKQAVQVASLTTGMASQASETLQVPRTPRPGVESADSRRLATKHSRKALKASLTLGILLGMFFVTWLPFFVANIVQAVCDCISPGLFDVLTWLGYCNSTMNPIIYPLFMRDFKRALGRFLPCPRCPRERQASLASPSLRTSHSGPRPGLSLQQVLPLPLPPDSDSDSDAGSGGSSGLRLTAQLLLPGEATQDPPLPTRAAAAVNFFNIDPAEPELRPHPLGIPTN

Row | Ki [1] | melting point | SMILES
1 | 0.01 to 10 nM | 140 to 145 °C | CCNCCCCc1ccc2[nH]nc(S(=O)(=O)c3cccc4ccccc34)c2c1 [Example 191]
2 | 0.01 to 10 nM | 145 to 150 °C | CC(C)NCCCCc1ccc2[nH]nc(S(=O)(=O)c3cccc4ccccc34)c2c1 [Example 192]
3 | 0.01 to 10 nM | 195 to 198 °C | CCN(C)CCCCc1ccc2[nH]nc(S(=O)(=O)c3cccc4ccccc34)c2c1 [Example 193]
4 | 11 to 25 nM | 238 to 240 °C | O=S(=O)(c1cccc2ccccc12)c1n[nH]c2ccc(CCCCN3CCCC3)cc12 [Example 194]
5 | 0.01 to 10 nM | 183 to 185 °C | CC(c1ccc2[nH]nc(S(=O)(=O)c3cccc4ccccc34)c2c1)N1CCN(C)CC1 (stereo not shown) [Example 203, 5-[1-(4-Methylpiperazin-1-yl)ethyl]-3-(1-naphthylsulfonyl)-1H-indazole]
